Experimental data from ChEMBL document CHEMBL1147425, “Structure-activity relationships of non-imidazole H(3) receptor ligands. Part 3: 5-Substituted 3-phenyl-1,2,4-oxadiazoles as potent antagonists” (Bioorg Med Chem Lett, 2004).

How the values were obtained:
Histamine H3 receptor [1] = target: Histamine H3 receptor (Homo sapiens, UniProt Q9Y5N1); experiment: Binding affinity for human histamine H3 receptor on human colon cells; assay type: cell-based
Histamine H3 receptor [2] = target: Histamine H3 receptor (Rattus norvegicus, UniProt Q9QYN8); experiment: Binding affinity for rat histamine H3 receptor on rat cortical cells
Mus musculus = experiment: Antagonistic effect was observed against agonist induced dipsogenia in mice after i.p. administration of compound; Active; assay type: functional
Histamine H2 receptor = Histamine H2 receptor (Homo sapiens, UniProt P25021); experiment: Binding affinity towards histamine H2 receptor of human colon cells was determined; assay type: cell-based
Histamine H4 receptor = Histamine H4 receptor (Homo sapiens, UniProt Q9H3N8); experiment: Binding affinity towards histamine H4 receptor of human colon cells was determined; assay type: cell-based
Histamine H1 receptor = Histamine H1 receptor (Homo sapiens, UniProt P35367); experiment: Binding affinity towards histamine H1 receptor of human colon cells was determined; assay type: cell-based
Histamine H1 receptor, sequence (P35367 whole entry): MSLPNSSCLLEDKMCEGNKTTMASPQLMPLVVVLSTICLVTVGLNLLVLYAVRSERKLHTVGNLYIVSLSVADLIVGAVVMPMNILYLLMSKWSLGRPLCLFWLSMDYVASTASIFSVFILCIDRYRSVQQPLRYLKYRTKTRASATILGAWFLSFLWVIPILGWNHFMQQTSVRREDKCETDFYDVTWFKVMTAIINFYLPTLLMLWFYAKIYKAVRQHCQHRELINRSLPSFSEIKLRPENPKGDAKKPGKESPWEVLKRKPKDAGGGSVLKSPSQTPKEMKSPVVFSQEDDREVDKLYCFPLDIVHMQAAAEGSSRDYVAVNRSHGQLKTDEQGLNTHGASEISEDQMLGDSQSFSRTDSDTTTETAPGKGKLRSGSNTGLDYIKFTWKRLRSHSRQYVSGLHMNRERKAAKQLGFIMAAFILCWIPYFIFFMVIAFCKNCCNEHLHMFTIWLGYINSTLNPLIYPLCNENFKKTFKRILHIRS

Histamine H3 receptor (Homo sapiens, UniProt Q9Y5N1), sequence (Q9Y5N1 whole entry): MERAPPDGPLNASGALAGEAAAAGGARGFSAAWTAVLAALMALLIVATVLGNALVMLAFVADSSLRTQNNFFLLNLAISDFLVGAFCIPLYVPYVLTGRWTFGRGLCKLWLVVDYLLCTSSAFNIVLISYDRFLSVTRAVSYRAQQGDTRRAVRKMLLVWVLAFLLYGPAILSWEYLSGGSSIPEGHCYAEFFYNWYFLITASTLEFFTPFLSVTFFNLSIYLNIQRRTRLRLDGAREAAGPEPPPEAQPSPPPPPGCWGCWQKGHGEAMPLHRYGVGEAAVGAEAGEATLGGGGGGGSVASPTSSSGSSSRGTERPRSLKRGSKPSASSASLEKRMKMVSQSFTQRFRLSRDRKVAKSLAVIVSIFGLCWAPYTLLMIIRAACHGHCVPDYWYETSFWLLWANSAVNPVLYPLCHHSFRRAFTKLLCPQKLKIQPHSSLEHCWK
Histamine H3 receptor (Rattus norvegicus, UniProt Q9QYN8), sequence (Q9QYN8 whole entry): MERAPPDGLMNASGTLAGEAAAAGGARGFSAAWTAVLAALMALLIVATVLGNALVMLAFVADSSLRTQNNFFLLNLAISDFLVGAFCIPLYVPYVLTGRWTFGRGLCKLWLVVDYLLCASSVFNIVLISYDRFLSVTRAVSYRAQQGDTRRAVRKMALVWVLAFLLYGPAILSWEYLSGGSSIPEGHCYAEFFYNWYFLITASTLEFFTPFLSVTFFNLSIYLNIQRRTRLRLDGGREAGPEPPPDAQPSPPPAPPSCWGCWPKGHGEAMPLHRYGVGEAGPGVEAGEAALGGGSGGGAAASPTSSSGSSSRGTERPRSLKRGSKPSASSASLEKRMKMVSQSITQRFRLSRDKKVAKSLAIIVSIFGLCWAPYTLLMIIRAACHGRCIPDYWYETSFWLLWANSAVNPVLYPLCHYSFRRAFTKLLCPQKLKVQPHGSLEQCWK
Histamine H2 receptor, sequence (P25021 whole entry): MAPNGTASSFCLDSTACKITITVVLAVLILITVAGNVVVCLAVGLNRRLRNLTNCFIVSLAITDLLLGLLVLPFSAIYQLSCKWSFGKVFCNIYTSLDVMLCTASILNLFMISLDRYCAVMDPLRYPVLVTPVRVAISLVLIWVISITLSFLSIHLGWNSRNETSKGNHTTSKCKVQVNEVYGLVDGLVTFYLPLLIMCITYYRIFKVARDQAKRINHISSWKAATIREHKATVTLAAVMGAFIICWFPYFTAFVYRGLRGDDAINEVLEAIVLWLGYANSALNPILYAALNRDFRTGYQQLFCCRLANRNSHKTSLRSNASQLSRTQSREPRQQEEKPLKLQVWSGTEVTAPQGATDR

Compound	Ki (Histamine H3 receptor [1]) [nM]	Ki (Histamine H3 receptor [2]) [nM]	Ki (Histamine H2 receptor) [nM]	Ki (Histamine H4 receptor) [nM]	Ki (Histamine H1 receptor) [nM]	Activity (Mus musculus) [µM/kg]
CC(C)Cc1nc(-c2ccc(OCCCN3CCCN(C(=O)[C@@H](C)NC(=O)c4ccco4)CC3)cc2F)no1	33	1.7	–	–	–	–
C[C@@H](NC(=O)c1ccco1)C(=O)N1CCCN(CCCOc2ccc(-c3noc(C4CCCCCC4)n3)c(F)c2)CC1	15	3.3	–	–	–	–
C[C@@H](NC(=O)c1ccco1)C(=O)N1CCCN(CCCOc2ccc(-c3noc(-c4ccccc4)n3)c(F)c2)CC1	8.6	4.1	–	–	–	–
CC(C)CCc1nc(-c2ccc(OCCCN3CCCN(C(=O)[C@@H](C)NC(=O)c4ccco4)CC3)cc2F)no1	8.6	0.56	–	–	–	–
C[C@@H](NC(=O)CCN1CCOCC1)C(=O)N1CCCN(CCCOc2ccc(-c3noc(CC4CCCC4)n3)c(F)c2)CC1	13	0.58	–	–	–	–
C[C@@H](NC(=O)c1ccco1)C(=O)N1CCCN(CCCOc2ccc(-c3noc(Cc4ccccc4)n3)c(F)c2)CC1	40	1.6	–	–	–	–
CC(C)OCc1nc(-c2ccc(OCCCN3CCCN(C(=O)[C@@H](C)NC(=O)c4ccco4)CC3)cc2F)no1	110	3.7	–	–	–	–
C[C@@H](NC(=O)c1ccco1)C(=O)N1CCCN(CCCOc2ccc(-c3noc(-c4cncs4)n3)c(F)c2)CC1	240	6.2	–	–	–	–
C[C@@H](NC(=O)c1ccco1)C(=O)N1CCN(CCCOc2ccc(C(=O)C3CC3)c(F)c2)CC1	43	1.3	–	–	–	–
C[C@@H](N)C(=O)N1CCCN(CCCOc2ccc(-c3noc(C4CC4)n3)c(F)c2)CC1	240	3	–	–	–	–
CC(C)CCC(=O)N[C@H](C)C(=O)N1CCCN(CCCOc2ccc(-c3noc(CC4CCCC4)n3)c(F)c2)CC1	23	2.8	–	–	–	–
CC(C)CCC(=O)N[C@H](C)C(=O)N1CCN(CCCOc2ccc(-c3noc(-c4ccccc4)n3)c(F)c2)CC1	68	14	–	–	–	–
C[C@@H](NC(=O)c1ccco1)C(=O)N1CCCN(CCCOc2ccc(-c3noc(-c4ccoc4)n3)c(F)c2)CC1	85	1.7	–	–	–	–
CCOCC(=O)N[C@H](C)C(=O)N1CCN(CCCOc2ccc(-c3noc(-c4ccccc4)n3)c(F)c2)CC1	100	10	–	–	–	–
C[C@@H](NC(=O)c1ccco1)C(=O)N1CCCN(CCCOc2ccc(-c3noc(C(C)(C)C)n3)c(F)c2)CC1	85	4.1	–	–	–	–
C[C@@H](NC(=O)c1ccco1)C(=O)N1CCCN(CCCOc2ccc(-c3noc(C4CCCO4)n3)c(F)c2)CC1 (mixture of isomers)	210	7.7	–	–	–	–
C[C@@H](NC(=O)c1ccco1)C(=O)N1CCN(CCCOc2ccc(-c3noc(-c4ccccc4)n3)c(F)c2)CC1 (stereo in doubt; 13q)	83	13	–	–	–	–

Now from value to compound, other results behind:

Ki (Histamine H3 receptor [1]) [nM]	Ki (Histamine H3 receptor [2]) [nM]	Ki (Histamine H2 receptor) [nM]	Ki (Histamine H4 receptor) [nM]	Ki (Histamine H1 receptor) [nM]	Compound	Activity (Mus musculus) [µM/kg]
100	6.4	–	–	–	C[C@@H](NC(=O)CC(C)(C)C)C(=O)N1CCN(CCCOc2ccc(-c3noc(CC4CCCC4)n3)c(F)c2)CC1	–
36	6.7	–	–	–	C[C@@H](NC(=O)c1cccc(Cl)c1)C(=O)N1CCN(CCCOc2ccc(-c3noc(CC4CCCC4)n3)c(F)c2)CC1	–
18	6.2	–	–	–	C[C@@H](NC(=O)c1ccc(Br)cc1)C(=O)N1CCN(CCCOc2ccc(-c3noc(CC4CCCC4)n3)c(F)c2)CC1	–
15	2.4	> 10000	> 10000	890	C[C@@H](NC(=O)c1ccc(N(C)C)cc1)C(=O)N1CCN(CCCOc2ccc(-c3noc(CC4CCCC4)n3)c(F)c2)CC1	>0.01
16	2.9	–	–	–	C[C@@H](NC(=O)c1ccccc1F)C(=O)N1CCN(CCCOc2ccc(-c3noc(CC4CCCC4)n3)c(F)c2)CC1	–
18	3.8	–	–	–	C[C@@H](NC(=O)c1cccc(F)c1)C(=O)N1CCN(CCCOc2ccc(-c3noc(CC4CCCC4)n3)c(F)c2)CC1	–
9.5	1.2	–	–	–	C[C@@H](NC(=O)c1ccc(C#N)cc1)C(=O)N1CCN(CCCOc2ccc(-c3noc(CC4CCCC4)n3)c(F)c2)CC1	–
130	7	–	–	–	C[C@@H](NC(=O)C(C)(C)C)C(=O)N1CCN(CCCOc2ccc(-c3noc(CC4CCCC4)n3)c(F)c2)CC1	–
130	21	–	–	–	C[C@@H](NC(=O)CC1CCCC1)C(=O)N1CCN(CCCOc2ccc(-c3noc(-c4ccccc4)n3)c(F)c2)CC1	–
13	1.1	–	–	–	CC(C)CC(=O)N[C@H](C)C(=O)N1CCCN(CCCOc2ccc(-c3noc(CC4CCCC4)n3)c(F)c2)CC1	–
26	1.1	–	–	–	CCC(=O)N[C@H](C)C(=O)N1CCCN(CCCOc2ccc(-c3noc(CC4CCCC4)n3)c(F)c2)CC1	–
47	2.6	–	–	–	C[C@@H](NC(=O)c1cccc(N(C)C)c1)C(=O)N1CCN(CCCOc2ccc(-c3noc(CC4CCCC4)n3)c(F)c2)CC1	–
24	2.8	–	–	–	C[C@@H](NC(=O)c1ccc(Cl)cc1)C(=O)N1CCN(CCCOc2ccc(-c3noc(CC4CCCC4)n3)c(F)c2)CC1	–
230	8	–	–	–	CC(C)C(=O)N[C@H](C)C(=O)N1CCN(CCCOc2ccc(-c3noc(CC4CCCC4)n3)c(F)c2)CC1	–
20	1.7	–	–	–	C[C@@H](NC(=O)c1cccnc1)C(=O)N1CCN(CCCOc2ccc(-c3noc(CC4CCCC4)n3)c(F)c2)CC1	–
65	24	–	–	–	C[C@@H](NC(=O)c1cccc(OC(F)(F)F)c1)C(=O)N1CCN(CCCOc2ccc(-c3noc(CC4CCCC4)n3)c(F)c2)CC1	–
98	6.1	–	–	–	CC(C)CCC(=O)N[C@H](C)C(=O)N1CCN(CCCOc2ccc(-c3noc(CC4CCCC4)n3)c(F)c2)CC1	–
13	2.4	–	–	–	Cc1ccccc1C(=O)N[C@H](C)C(=O)N1CCN(CCCOc2ccc(-c3noc(CC4CCCC4)n3)c(F)c2)CC1	–
